From US12590134B2, “GLP-1 agonist polypeptide compound and salt thereof, synthesis method therefor and use thereof” (Sinopep-Allsino Biopharmaceutical Co., Ltd., priority 2020, dated 2026) come the findings set out here.

One may read the EC50 as the concentration that produces a half-maximal response.

Numbered stars: 1 amine (or outer) side, 2 acyl side, 3 side chain; on linkers, the order of the positions; unused ones are H or OH. Square brackets hold non-standard residues; d marks the D form. Side chains are listed from the residue outwards. Peptide text beside a SMILES is read from it. * marks the point of attachment. C18 diacid = O=C(O)CCCCCCCCCCCCCCCCC(=O)*; γGlu = O=C(O)[C@H](CCC(=O)[*:2])N[*:1]; Ac4c(3-oxa) = NC1(C(=O)O)COC1; dNle = CCCC[C@@H](N)C(=O)O; dNva = CCC[C@@H](N)C(=O)O; dAbu = CC[C@@H](N)C(=O)O; Abu = CC[C@H](N)C(=O)O; AEEA = NCCOCCOCC(=O)O

The target of the first assay is human GLP-1R (Homo sapiens, UniProt P43220). The assay is described as follows: cAMP signal analysis of GLP-1R (GLP-1 receptor agonist activity). Type of assay: cell-based.
Chain of human GLP-1R (P43220 24-463): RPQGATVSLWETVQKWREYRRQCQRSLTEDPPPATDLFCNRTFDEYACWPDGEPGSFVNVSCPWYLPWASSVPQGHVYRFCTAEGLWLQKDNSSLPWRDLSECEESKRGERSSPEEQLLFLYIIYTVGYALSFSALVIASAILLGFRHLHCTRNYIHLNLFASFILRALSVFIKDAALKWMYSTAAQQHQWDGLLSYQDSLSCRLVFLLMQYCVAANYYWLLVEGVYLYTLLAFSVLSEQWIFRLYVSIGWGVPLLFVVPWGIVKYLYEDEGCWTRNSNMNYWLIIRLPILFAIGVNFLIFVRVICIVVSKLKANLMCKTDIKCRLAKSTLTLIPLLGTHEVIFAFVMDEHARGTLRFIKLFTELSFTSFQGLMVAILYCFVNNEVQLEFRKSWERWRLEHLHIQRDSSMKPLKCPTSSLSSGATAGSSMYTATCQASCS
Conditions: not given
On the procedure:
A wild human GLP-1R (NM_002062.5) was subjected to transient transfection and screened for two weeks by 600 μg/ml of hygromycin-B to obtain a cell line which was recombined and integrated into an FlpInCHO (Invitrogen) cell stable expression system. The culture condition of the FlpInCHO cell was as follows: 10% of heat-inactivated fetal calf serum was added to a DMEM culture solution, and the culture was performed in a 5% carbon dioxide cell incubator.
In the test, an LANCE cAMP detection kit was used for measuring the cAMP signal intensity.
`CC[C@H](C)[C@H](NC(=O)[C@H](Cc1ccccc1)NC(=O)[C@H](CCC(=O)O)NC(=O)[C@H](CCCCNC(=O)COCCOCCNC(=O)COCCOCCNC(=O)CC[C@H](NC(=O)CCCCCCCCCCCCCCCCC(=O)O)C(=O)O)NC(=O)[C@H](C)NC(=O)[C@H](C)NC(=O)[C@H](CCC(N)=O)NC(=O)[C@@H]1CCCN1C(=O)[C@H](CCC(=O)O)NC(=O)[C@H](CC(C)C)NC(=O)[C@H](Cc1ccc(O)cc1)NC(=O)[C@H](CO)NC(=O)[C@H](CO)NC(=O)[C@@H](NC(=O)[C@H](CC(=O)O)NC(=O)[C@H](CO)NC(=O)[C@@H](NC(=O)[C@H](Cc1ccccc1)NC(=O)[C@@H](NC(=O)CNC(=O)[C@H](CCC(=O)O)NC(=O)[C@@H]1CCCN1C(=O)[C@@H](N)Cc1c[nH]cn1)[C@@H](C)O)[C@@H](C)O)C(C)C)C(=O)N[C@@H](C)C(=O)N[C@@H](Cc1c[nH]c2ccccc12)C(=O)N[C@@H](CC(C)C)C(=O)N[C@H](C(=O)N[C@@H](CCCNC(=N)N)C(=O)NCC(=O)N[C@@H](CCCNC(=N)N)C(=O)NCC(=O)O)C(C)C` [NO: 17]: the half-maximal effective concentration (EC50) worked out at 3.32 ± 0.677 nM.

The assay is the same for the next values; noted with them: CHO cell line stably expressing human GLP-1R; downstream cAMP signal, LANCE cAMP kit; read-out: GLP-1R EC50.
Consider `CC[C@H](C)[C@H](NC(=O)[C@H](Cc1ccccc1)NC(=O)[C@H](CCC(=O)O)NC(=O)[C@H](CCCCNC(=O)COCCOCCNC(=O)COCCOCCNC(=O)CC[C@H](NC(=O)CCCCCCCCCCCCCCCCC(=O)O)C(=O)O)NC(=O)[C@H](C)NC(=O)[C@H](C)NC(=O)[C@H](CCC(N)=O)NC(=O)[C@@](C)(CC)NC(=O)[C@H](CCC(=O)O)NC(=O)[C@H](CC(C)C)NC(=O)[C@H](Cc1ccc(O)cc1)NC(=O)[C@H](CO)NC(=O)[C@H](CO)NC(=O)[C@@H](NC(=O)[C@H](CC(=O)O)NC(=O)[C@H](CO)NC(=O)[C@@H](NC(=O)[C@H](Cc1ccccc1)NC(=O)[C@@H](NC(=O)CNC(=O)[C@H](CCC(=O)O)NC(=O)[C@@](C)(CC)NC(=O)[C@@H](N)Cc1c[nH]cn1)[C@@H](C)O)[C@@H](C)O)C(C)C)C(=O)N[C@@H](C)C(=O)N[C@@H](Cc1c[nH]c2ccccc12)C(=O)N[C@@H](CC(C)C)C(=O)N[C@H](C(=O)N[C@@H](CCCNC(=N)N)C(=O)NCC(=O)N[C@@H](CCCNC(=N)N)C(=O)NCC(=O)O)C(C)C` [NO: 1], for which the 50% effective concentration (EC50) is 91.7 ± 9.69 nM.

Consider `CC[C@H](C)[C@H](NC(=O)[C@H](Cc1ccccc1)NC(=O)[C@H](CCC(=O)O)NC(=O)[C@H](CCCCNC(=O)COCCOCCNC(=O)COCCOCCNC(=O)CC[C@H](NC(=O)CCCCCCCCCCCCCCCCC(=O)O)C(=O)O)NC(=O)[C@H](C)NC(=O)[C@H](C)NC(=O)[C@H](CCC(N)=O)NC(=O)C1(NC(=O)[C@H](CCC(=O)O)NC(=O)[C@H](CC(C)C)NC(=O)[C@H](Cc2ccc(O)cc2)NC(=O)[C@H](CO)NC(=O)[C@H](CO)NC(=O)[C@@H](NC(=O)[C@H](CC(=O)O)NC(=O)[C@H](CO)NC(=O)[C@@H](NC(=O)[C@H](Cc2ccccc2)NC(=O)[C@@H](NC(=O)CNC(=O)[C@H](CCC(=O)O)NC(=O)C2(NC(=O)[C@@H](N)Cc3c[nH]cn3)COC2)[C@@H](C)O)[C@@H](C)O)C(C)C)COC1)C(=O)N[C@@H](C)C(=O)N[C@@H](Cc1c[nH]c2ccccc12)C(=O)N[C@@H](CC(C)C)C(=O)N[C@H](C(=O)N[C@@H](CCCNC(=N)N)C(=O)NCC(=O)N[C@@H](CCCNC(=N)N)C(=O)NCC(=O)O)C(C)C` [NO: 5] (H-H[Ac4c(3-oxa)]EGTFTSDVSSYLE[Ac4c(3-oxa)]QAAK([AEEA-AEEA-γGlu-C18 diacid])EFIAWLVRGRG-OH), for which the EC50 was found to be 0.915 ± 0.126 nM. Still for that read-out and setting: the figure for `CC[C@H](NC(=O)[C@H](CCC(=O)O)NC(=O)[C@H](CC(C)C)NC(=O)[C@H](Cc1ccc(O)cc1)NC(=O)[C@H](CO)NC(=O)[C@H](CO)NC(=O)[C@@H](NC(=O)[C@H](CC(=O)O)NC(=O)[C@H](CO)NC(=O)[C@@H](NC(=O)[C@H](Cc1ccccc1)NC(=O)[C@@H](NC(=O)CNC(=O)[C@H](CCC(=O)O)NC(=O)[C@H](CC)NC(=O)[C@@H](N)Cc1c[nH]cn1)[C@@H](C)O)[C@@H](C)O)C(C)C)C(=O)N[C@@H](CCC(N)=O)C(=O)N[C@@H](C)C(=O)N[C@@H](C)C(=O)N[C@@H](CCCCNC(=O)COCCOCCNC(=O)COCCOCCNC(=O)CC[C@H](NC(=O)CCCCCCCCCCCCCCCCC(=O)O)C(=O)O)C(=O)N[C@@H](CCC(=O)O)C(=O)N[C@@H](Cc1ccccc1)C(=O)N[C@H](C(=O)N[C@@H](C)C(=O)N[C@@H](Cc1c[nH]c2ccccc12)C(=O)N[C@@H](CC(C)C)C(=O)N[C@H](C(=O)N[C@@H](CCCNC(=N)N)C(=O)NCC(=O)N[C@@H](CCCNC(=N)N)C(=O)NCC(=O)O)C(C)C)[C@@H](C)CC` [NO: 7] (H-H[Abu]EGTFTSDVSSYLE[Abu]QAAK([AEEA-AEEA-γGlu-C18 diacid])EFIAWLVRGRG-OH) is 8.8 ± 1.41 nM. The same measure, in the same setting: as for `CC[C@@H](NC(=O)[C@H](CCC(=O)O)NC(=O)[C@H](CC(C)C)NC(=O)[C@H](Cc1ccc(O)cc1)NC(=O)[C@H](CO)NC(=O)[C@H](CO)NC(=O)[C@@H](NC(=O)[C@H](CC(=O)O)NC(=O)[C@H](CO)NC(=O)[C@@H](NC(=O)[C@H](Cc1ccccc1)NC(=O)[C@@H](NC(=O)CNC(=O)[C@H](CCC(=O)O)NC(=O)[C@@H](CC)NC(=O)[C@@H](N)Cc1c[nH]cn1)[C@@H](C)O)[C@@H](C)O)C(C)C)C(=O)N[C@@H](CCC(N)=O)C(=O)N[C@@H](C)C(=O)N[C@@H](C)C(=O)N[C@@H](CCCCNC(=O)COCCOCCNC(=O)COCCOCCNC(=O)CC[C@H](NC(=O)CCCCCCCCCCCCCCCCC(=O)O)C(=O)O)C(=O)N[C@@H](CCC(=O)O)C(=O)N[C@@H](Cc1ccccc1)C(=O)N[C@H](C(=O)N[C@@H](C)C(=O)N[C@@H](Cc1c[nH]c2ccccc12)C(=O)N[C@@H](CC(C)C)C(=O)N[C@H](C(=O)N[C@@H](CCCNC(=N)N)C(=O)NCC(=O)N[C@@H](CCCNC(=N)N)C(=O)NCC(=O)O)C(C)C)[C@@H](C)CC` [NO: 9] (H-H[dAbu]EGTFTSDVSSYLE[dAbu]QAAK([AEEA-AEEA-γGlu-C18 diacid])EFIAWLVRGRG-OH), the figure is 0.675 ± 0.067 nM; as for `CCSC[C@@H](NC(=O)[C@H](CCC(=O)O)NC(=O)[C@H](CC(C)C)NC(=O)[C@H](Cc1ccc(O)cc1)NC(=O)[C@H](CO)NC(=O)[C@H](CO)NC(=O)[C@@H](NC(=O)[C@H](CC(=O)O)NC(=O)[C@H](CO)NC(=O)[C@@H](NC(=O)[C@H](Cc1ccccc1)NC(=O)[C@@H](NC(=O)CNC(=O)[C@H](CCC(=O)O)NC(=O)[C@@H](CSCC)NC(=O)[C@@H](N)Cc1c[nH]cn1)[C@@H](C)O)[C@@H](C)O)C(C)C)C(=O)N[C@@H](CCC(N)=O)C(=O)N[C@@H](C)C(=O)N[C@@H](C)C(=O)N[C@@H](CCCCNC(=O)COCCOCCNC(=O)COCCOCCNC(=O)CC[C@H](NC(=O)CCCCCCCCCCCCCCCCC(=O)O)C(=O)O)C(=O)N[C@@H](CCC(=O)O)C(=O)N[C@@H](Cc1ccccc1)C(=O)N[C@H](C(=O)N[C@@H](C)C(=O)N[C@@H](Cc1c[nH]c2ccccc12)C(=O)N[C@@H](CC(C)C)C(=O)N[C@H](C(=O)N[C@@H](CCCNC(=N)N)C(=O)NCC(=O)N[C@@H](CCCNC(=N)N)C(=O)NCC(=O)O)C(C)C)[C@@H](C)CC` [NO: 11] (H-H[dC](Et)EGTFTSDVSSYLE[dC](Et)QAAK([AEEA-AEEA-γGlu-C18 diacid])EFIAWLVRGRG-OH), 8.1 ± 0.507 nM. On to `CCCC[C@@H](NC(=O)[C@H](CCC(=O)O)NC(=O)[C@H](CC(C)C)NC(=O)[C@H](Cc1ccc(O)cc1)NC(=O)[C@H](CO)NC(=O)[C@H](CO)NC(=O)[C@@H](NC(=O)[C@H](CC(=O)O)NC(=O)[C@H](CO)NC(=O)[C@@H](NC(=O)[C@H](Cc1ccccc1)NC(=O)[C@@H](NC(=O)CNC(=O)[C@H](CCC(=O)O)NC(=O)[C@@H](CCCC)NC(=O)[C@@H](N)Cc1c[nH]cn1)[C@@H](C)O)[C@@H](C)O)C(C)C)C(=O)N[C@@H](CCC(N)=O)C(=O)N[C@@H](C)C(=O)N[C@@H](C)C(=O)N[C@@H](CCCCNC(=O)COCCOCCNC(=O)COCCOCCNC(=O)CC[C@H](NC(=O)CCCCCCCCCCCCCCCCC(=O)O)C(=O)O)C(=O)N[C@@H](CCC(=O)O)C(=O)N[C@@H](Cc1ccccc1)C(=O)N[C@H](C(=O)N[C@@H](C)C(=O)N[C@@H](Cc1c[nH]c2ccccc12)C(=O)N[C@@H](CC(C)C)C(=O)N[C@H](C(=O)N[C@@H](CCCNC(=N)N)C(=O)NCC(=O)N[C@@H](CCCNC(=N)N)C(=O)NCC(=O)O)C(C)C)[C@@H](C)CC` [NO: 13] (H-H[dNle]EGTFTSDVSSYLE[dNle]QAAK([AEEA-AEEA-γGlu-C18 diacid])EFIAWLVRGRG-OH), for which the concentration giving a half-maximal response (EC50) was 5.59 ± 0.575 nM. Turning to `CCC[C@@H](NC(=O)[C@H](CCC(=O)O)NC(=O)[C@H](CC(C)C)NC(=O)[C@H](Cc1ccc(O)cc1)NC(=O)[C@H](CO)NC(=O)[C@H](CO)NC(=O)[C@@H](NC(=O)[C@H](CC(=O)O)NC(=O)[C@H](CO)NC(=O)[C@@H](NC(=O)[C@H](Cc1ccccc1)NC(=O)[C@@H](NC(=O)CNC(=O)[C@H](CCC(=O)O)NC(=O)[C@@H](CCC)NC(=O)[C@@H](N)Cc1c[nH]cn1)[C@@H](C)O)[C@@H](C)O)C(C)C)C(=O)N[C@@H](CCC(N)=O)C(=O)N[C@@H](C)C(=O)N[C@@H](C)C(=O)N[C@@H](CCCCNC(=O)COCCOCCNC(=O)COCCOCCNC(=O)CC[C@H](NC(=O)CCCCCCCCCCCCCCCCC(=O)O)C(=O)O)C(=O)N[C@@H](CCC(=O)O)C(=O)N[C@@H](Cc1ccccc1)C(=O)N[C@H](C(=O)N[C@@H](C)C(=O)N[C@@H](Cc1c[nH]c2ccccc12)C(=O)N[C@@H](CC(C)C)C(=O)N[C@H](C(=O)N[C@@H](CCCNC(=N)N)C(=O)NCC(=O)N[C@@H](CCCNC(=N)N)C(=O)NCC(=O)O)C(C)C)[C@@H](C)CC` [NO: 15] (H-H[dNva]EGTFTSDVSSYLE[dNva]QAAK([AEEA-AEEA-γGlu-C18 diacid])EFIAWLVRGRG-OH), the EC50 worked out at 2.9 ± 0.39 nM.
